Test results from EP0768085A1, “ANTIBACTERIAL AGENT” (DAIICHI PHARMACEUTICAL CO., LTD., priority 1994, dated 1996).
Converted amounts (≈) assume the structure as drawn.

Columns and labels:
Assay type in all cases: cell-based
[1] = system: Staphylococcus aureus 209-P; assay: Antibacterial activity (IC), Mueller-Hinton broth, 96-well microplate (Example 4, Table 39); details: 37°C, 18 hours
Method: (§1) A suitable amount of a sample was dissolved in dimethylsulfoxide (DMSO), and the resultant solution was diluted with the same amount of sterilized distilled water to prepare a bulk sample of 1,000 µg/ml. Mueller-Hinton broth (product of DIFCO) was dispensed into each well of 96-well microplate. Thereafter, the bulk specimen was added to the first well of a row, and successively diluted (10-fold each time) with sterilized distilled water. Separately, a bacterial cell suspension for the test (Staphylococcus aureus 209-P) which had been cultured in the above-mentioned broth overnight at 37°C was inoculated to each well so that the final inoculation amount of 10^6 CFU/ml was attained. The final concentrations of the samples were 100, 10, and 1 µg/ml.
(§2) The antibacterial action was evaluated by the inhibitory concentration (hereinafter abbreviated as IC) at which propagation of the bacteria cultured at 37°C for 18 hours was inhibited. Inhibition was determined by the turbidity of the medium. The expressions "IC≤100", "≤10", and "≤1" indicate that MIC-equivalent values obtained at the succesive […] dilution of the sample are 100-10 µg/ml, 10-1 µg/ml, and not more than 1 µg/ml, respectively. […] (In the subsequent Examples, the same rule applies correspondingly.) Table 39

[2] = system: Pasteurella multocida (Kobe-6); assay: Antibacterial activity (IC), broth microplate as in Example 4 (Example 6, Table 41); details: 18 h, origin pig
Method: as §1, §2
In a manner similar to that described in Example 4, antibacterial activity of the invention compound was determined. The bacterium used for the test was Pasteurella Kobe-6 (origin: pig; Pasteurella multocida).

[3] = system: Staphylococcus aureus TI-1; assay: Antibacterial activity (IC), broth microplate as in Example 4 (Example 5, Table 40); details: TI1, 18 h
Method: as §1, §2
In a manner similar to that described in Example 4, antibacterial activity of the invention compound was determined. The bacterium used for the test was Staphylococcus aureus TI-1.

[4] = system: Bordetella bronchiseptica (SM2-4); assay: Antibacterial activity (IC), broth microplate as in Example 4 (Example 7, Table 42); details: 18 h
Method: as §1, §2
In a manner similar to that described in Example 4, antibacterial activity of the invention compound was determined. The bacterium used for the test was Bordetella bronchiseptica (SM2-4).

[5] = system: Enterococcus from fish; assay: Antibacterial activity (IC), agar as in Example 8, media with 1.5% NaCl, 25°C (Example 20, Tables 53-55); details: for MIC: Enterococcus Seriolicida SE94-002
Method: as §2
(§3) A suitable amount of a sample was dissolved in dimethylsulfoxide (DMSO), after which the resulting solution was diluted with the same amount of sterilized distilled water to prepare a bulk sample of 1,000 µg/ml. Separately, a bacterial liquid for the test (methicillin-resistant Staphylococcus aureus (MRSA) isolated from humans) which had been cultured in Mueller-Hinton broth (product of DIFCO) was prepared and inoculated to a Mueller-Hinton agar (product of DIFCO) containing the sample so that the final inoculation amount of 10^6 CFU/ml was achieved. The final concentrations of the samples were 100, 10, and 1 µg/ml.
(§4) After culturing at 37°C for 18 hours, the antibacterial activity was evaluated in terms of IC in a manner similar to that described in Example 4.
(§5) In a manner similar to that described in Example 8, antibacterial activity of a variety of ketonitrile derivatives shown in Tables 53-55 was measured. The bacteria used for the test were Enterococcus and Pasteurella from fish. The culture conditions were such that the media contained 1.5% NaCl, and the culture temperature was 25°C.

[6] = system: Pasteurella from fish; assay: as above; details: for MIC: Pasteurella piscicida KP94-02
Method: as §2, §3, §4, §5

[7] = system: Staphylococcus aureus (209-P); assay: Antibacterial activity (IC), agar as in Example 8 (Example 15, Table 48); details: 18 h
Method: as §2, §3, §4
The bacterium used for the test was Staphylococcus aureus (209-P).

[8] = system: methicillin-resistant Staphylococcus aureus (MRSA) from humans; assay: Antibacterial activity (IC), agar as in Example 8 (Example 19, Table 52); details: 18 h
Method: as §2, §3, §4
In a manner similar to that described in Example 8, antibacterial activity of a variety of ketonitrile derivatives shown in Table 52 was measured. The bacterium used for the test was methicillin-resistant Staphylococcus aureus (MRSA) from humans.

[9] = system: Streptococcus aureus (TI-1); assay: Antibacterial activity (IC), agar as in Example 8 (Example 16, Table 49); details: 18 h
Method: as §2, §3, §4
In a manner similar to that described in Example 8, antibacterial activity of the invention compound was determined. The bacterium used for the test was […] aureus (TI-1).

[10] = system: Pasteurella multocida (Kobe-6); assay: Antibacterial activity (IC), agar as in Example 8 (Example 17, Table 50); details: 18 h, origin pig
Method: as §2, §3, §4
In a manner similar to that described in Example 8, antibacterial activity of the invention compound was determined. The bacterium used for the test was Pasteurella Kobe-6 (origin: pig, Pasteurella multocida).

[11] = Enterococcus Seriolicida KG86050
[12] = Enterococcus Seriolicida MS89060
[13] = Enterococcus Seriolicida MS89064
[14] = Enterococcus Seriolicida MS89066
[15] = Enterococcus Seriolicida MS89068
[16] = Enterococcus Seriolicida SE94-001
[17] = Enterococcus Seriolicida SE94-003
[18] = Enterococcus Seriolicida SE94-004
[19] = Enterococcus Seriolicida SE94-005

For CC(Oc1ccc(Oc2ncc(C(F)(F)F)cc2Cl)cc1)C(=O)C(C#N)c1cccc(Cl)c1 (centres unmarked) [Compound No. 10], the MIC [1] was 1 to 10 µg/mL (≈ 2.02 to 20.2 µM), the MIC [2] was 10 to 100 µg/mL (≈ 20.2 to 202 µM) and the MIC [3] was 1 to 10 µg/mL (≈ 2.02 to 20.2 µM).
Molecule Cc1cccc(C(C#N)C(=O)C(C)Oc2ccc(Oc3ncc(C(F)(F)F)cc3Cl)cc2)c1 (centres unmarked) [compound 16] has an MIC [1] of 10 to 100 µg/mL (≈ 21.1 to 211 µM), an MIC [2] of 10 to 100 µg/mL (≈ 21.1 to 211 µM) and an MIC [4] of 10 to 100 µg/mL (≈ 21.1 to 211 µM). The MIC [3] was 1 to 10 µg/mL (≈ 2.11 to 21.1 µM).
With CC(Oc1cc(Oc2ccc(C(F)(F)F)cc2Cl)cc(Oc2ccc(C(F)(F)F)cc2Cl)c1)C(=O)C(C#N)c1ccc(Cl)c(Cl)c1 (centres unmarked) [compound 210] the IC ([5]; Enterococcus Seriolicida HI) was ≤10 (10-1 µg/ml), the IC [5, 11] was ≤10 (10-1 µg/ml) and the IC [5, 12] was ≤10 (10-1 µg/ml). For the same molecule, the IC [5, 13] was ≤10 (10-1 µg/ml), the IC [5, 14] was ≤10 (10-1 µg/ml) and the IC [5, 15] was ≤10 (10-1 µg/ml). For the same molecule, the IC [5, 16] was ≤10 (10-1 µg/ml), the MIC [5] was 1 to 10 µg/mL (≈ 1.38 to 13.8 µM) and the IC [5, 17] was ≤10 (10-1 µg/ml). The IC [5, 18] was ≤10 (10-1 µg/ml), the IC [5, 19] was ≤10 (10-1 µg/ml) and the MIC [6] was 10 to 100 µg/mL (≈ 13.8 to 138 µM). For the same molecule, the IC ([6]; Pasteurella piscicida KP94-04) was ≤100 (MIC-equivalent values obtained at the succesive 2-fold dilution of the sample are 100-10 µg/ml), the IC ([6]; Pasteurella piscicida KP94-05) was ≤100 (MIC-equivalent values obtained at the succesive 2-fold dilution of the sample are 100-10 µg/ml) and the IC ([6]; Pasteurella piscicida KP94-06) was ≤100 (MIC-equivalent values obtained at the succesive 2-fold dilution of the sample are 100-10 µg/ml). The MIC [7] was 1 to 10 µg/mL (≈ 1.38 to 13.8 µM), the MIC ([8]; MRSA strain 891179) was 1 to 10 µg/mL (≈ 1.38 to 13.8 µM) and the MIC ([8]; MRSA strain 891185) was 1 to 10 µg/mL (≈ 1.38 to 13.8 µM). The MIC ([8]; MRSA strain 891187) was 1 to 10 µg/mL (≈ 1.38 to 13.8 µM), the MIC ([8]; MRSA strain 891192) was 1 to 10 µg/mL (≈ 1.38 to 13.8 µM) and the MIC ([8]; MRSA strain 900048) was 1 to 10 µg/mL (≈ 1.38 to 13.8 µM). It also gave an MIC ([8]; MRSA strain 900056) of 1 to 10 µg/mL (≈ 1.38 to 13.8 µM), an MIC [9] of 1 to 10 µg/mL (≈ 1.38 to 13.8 µM) and an MIC [10] of 10 to 100 µg/mL (≈ 13.8 to 138 µM).
COc1cc(Oc2ccc(C(F)(F)F)cc2Cl)cc(OC(C)C(=O)C(C#N)c2ccc(Cl)c(Cl)c2)c1 (centres unmarked) [compound 209] was tested, and the IC ([5]; Enterococcus Seriolicida HI) was ≤10 (10-1 µg/ml), the IC [5, 11] was ≤10 (10-1 µg/ml) and the IC [5, 12] was ≤10 (10-1 µg/ml). The IC [5, 13] was ≤10 (10-1 µg/ml), the IC [5, 14] was ≤10 (10-1 µg/ml) and the IC [5, 15] was ≤10 (10-1 µg/ml). The IC [5, 16] was ≤10 (10-1 µg/ml), the MIC [5] was 1 to 10 µg/mL (≈ 1.79 to 17.9 µM) and the IC [5, 17] was ≤10 (10-1 µg/ml). The IC [5, 18] was ≤10 (10-1 µg/ml), the IC [5, 19] was ≤10 (10-1 µg/ml) and the MIC [6] was 10 to 100 µg/mL (≈ 17.9 to 179 µM). For the same molecule, the IC ([6]; Pasteurella piscicida KP94-04) was ≤100 (MIC-equivalent values obtained at the succesive 2-fold dilution of the sample are 100-10 µg/ml), the IC ([6]; Pasteurella piscicida KP94-05) was ≤100 (MIC-equivalent values obtained at the succesive 2-fold dilution of the sample are 100-10 µg/ml) and the IC ([6]; Pasteurella piscicida KP94-06) was ≤100 (MIC-equivalent values obtained at the succesive 2-fold dilution of the sample are 100-10 µg/ml). For the same molecule, the MIC [7] was 1 to 10 µg/mL (≈ 1.79 to 17.9 µM), the MIC ([8]; MRSA strain 891179) was 1 to 10 µg/mL (≈ 1.79 to 17.9 µM) and the MIC ([8]; MRSA strain 891185) was 1 to 10 µg/mL (≈ 1.79 to 17.9 µM). For the same molecule, the MIC ([8]; MRSA strain 891187) was 1 to 10 µg/mL (≈ 1.79 to 17.9 µM), the MIC ([8]; MRSA strain 891192) was 1 to 10 µg/mL (≈ 1.79 to 17.9 µM) and the MIC ([8]; MRSA strain 900048) was 1 to 10 µg/mL (≈ 1.79 to 17.9 µM). For the same molecule, the MIC ([8]; MRSA strain 900056) was 1 to 10 µg/mL (≈ 1.79 to 17.9 µM), the MIC [9] was 1 to 10 µg/mL (≈ 1.79 to 17.9 µM) and the MIC [10] was 1 to 10 µg/mL (≈ 1.79 to 17.9 µM).
Molecule CC(Oc1ccc(Oc2ccc(C(F)(F)F)cc2Cl)cc1)C(=O)C(C#N)c1nc(Cl)cc(Cl)n1 (centres unmarked) [compound 22] has an MIC [1] of 1 to 10 µg/mL (≈ 1.88 to 18.8 µM), an MIC [2] of 10 to 100 µg/mL (≈ 18.8 to 188 µM) and an MIC [3] of 1 to 10 µg/mL (≈ 1.88 to 18.8 µM).
With CC(Oc1ccc(Oc2ncc(C(F)(F)F)cc2Cl)cc1)C(=O)C(C#N)c1ccc(Cl)cc1Cl (centres unmarked) [Compound No. 2, 4-[4-(3-chloro-5-trifluoromethyl-2-pyridyloxy)phenoxy]-2-(2,4-dichlorophenyl)-3-oxopentanonitrile] the MIC [1] was 10 to 100 µg/mL (≈ 18.9 to 189 µM), the MIC [2] was 10 to 100 µg/mL (≈ 18.9 to 189 µM) and the MIC [4] was 10 to 100 µg/mL (≈ 18.9 to 189 µM). It also gave an MIC [3] of 1 to 10 µg/mL (≈ 1.89 to 18.9 µM).
For CC(Oc1ccc(Oc2ncc(C(F)(F)F)cc2Cl)cc1)C(=O)C(C#N)c1cccc2ccccc12 (centres unmarked) [compound 14], the MIC [1] was 10 to 100 µg/mL (≈ 19.6 to 196 µM), the MIC [4] was 10 to 100 µg/mL (≈ 19.6 to 196 µM) and the MIC [3] was 10 to 100 µg/mL (≈ 19.6 to 196 µM).
For CC(Oc1ccc(Oc2ncc(C(F)(F)F)cc2Cl)cc1)C(=O)C(C#N)c1ccc(F)c(F)c1 (centres unmarked) [compound 27], the MIC [1] was 1 to 10 µg/mL (≈ 2.01 to 20.1 µM), the MIC [2] was 10 to 100 µg/mL (≈ 20.1 to 201 µM) and the MIC [3] was 1 to 10 µg/mL (≈ 2.01 to 20.1 µM).
